Source: publication PMC6925656 (Clinical pharmacology and therapeutics, 2019)

Experiments:
human OCT1 [1] = molecular target: T1, human OCT1 (Homo sapiens, UniProt O15245); assay: Uptake into OCT1-expressing or nonexpressing Xenopus laevis oocytes
T1 sequence (O15245 1-554): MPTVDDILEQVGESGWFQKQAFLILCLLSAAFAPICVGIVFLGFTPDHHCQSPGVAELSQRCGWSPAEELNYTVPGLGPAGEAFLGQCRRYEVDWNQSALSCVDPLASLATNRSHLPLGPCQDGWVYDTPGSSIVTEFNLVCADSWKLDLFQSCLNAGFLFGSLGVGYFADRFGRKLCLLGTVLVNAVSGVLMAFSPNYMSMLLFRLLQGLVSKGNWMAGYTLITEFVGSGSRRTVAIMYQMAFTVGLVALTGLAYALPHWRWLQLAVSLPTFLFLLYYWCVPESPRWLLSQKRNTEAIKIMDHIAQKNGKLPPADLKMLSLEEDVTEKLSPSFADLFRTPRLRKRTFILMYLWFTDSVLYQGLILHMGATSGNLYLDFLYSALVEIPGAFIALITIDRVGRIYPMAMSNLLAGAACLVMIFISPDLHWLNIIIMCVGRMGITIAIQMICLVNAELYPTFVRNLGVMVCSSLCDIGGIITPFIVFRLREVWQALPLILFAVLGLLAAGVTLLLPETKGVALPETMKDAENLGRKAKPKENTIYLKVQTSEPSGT

human OCT1 [2] = molecular target: T1, human OCT1; assay: Uptake into HEK293 cells expressing human OCT1
Huh7 cells = assay: Uptake into Huh7 liver cancer cells; type: in vitro ADME, human
HepG2 cells = assay: Uptake into HepG2 liver cancer cells; type: in vitro ADME, human
HeLa cells = assay: Sorafenib uptake and membrane binding in HeLa cells; type: in vitro ADME; conditions: for Interference with non-specific membrane binding of sorafenib: isolated membrane fraction
Oct1 [3] = assay: Pharmacokinetics in Oct1-deficient versus wild-type mice; conditions: for Pharmacokinetic parameters, Oct1-deficient vs wild-type mice: sorafenib single oral dose 10 mg/kg, plasma
mOATP2B1 = molecular target: T2, mOATP2B1 (Mus musculus, UniProt Q8BXB6); assay: Sorafenib uptake by HEK cells overexpressing mOATP2B1; type: in vitro ADME; conditions: Figure S4
T2 sequence (Q8BXB6 1-683): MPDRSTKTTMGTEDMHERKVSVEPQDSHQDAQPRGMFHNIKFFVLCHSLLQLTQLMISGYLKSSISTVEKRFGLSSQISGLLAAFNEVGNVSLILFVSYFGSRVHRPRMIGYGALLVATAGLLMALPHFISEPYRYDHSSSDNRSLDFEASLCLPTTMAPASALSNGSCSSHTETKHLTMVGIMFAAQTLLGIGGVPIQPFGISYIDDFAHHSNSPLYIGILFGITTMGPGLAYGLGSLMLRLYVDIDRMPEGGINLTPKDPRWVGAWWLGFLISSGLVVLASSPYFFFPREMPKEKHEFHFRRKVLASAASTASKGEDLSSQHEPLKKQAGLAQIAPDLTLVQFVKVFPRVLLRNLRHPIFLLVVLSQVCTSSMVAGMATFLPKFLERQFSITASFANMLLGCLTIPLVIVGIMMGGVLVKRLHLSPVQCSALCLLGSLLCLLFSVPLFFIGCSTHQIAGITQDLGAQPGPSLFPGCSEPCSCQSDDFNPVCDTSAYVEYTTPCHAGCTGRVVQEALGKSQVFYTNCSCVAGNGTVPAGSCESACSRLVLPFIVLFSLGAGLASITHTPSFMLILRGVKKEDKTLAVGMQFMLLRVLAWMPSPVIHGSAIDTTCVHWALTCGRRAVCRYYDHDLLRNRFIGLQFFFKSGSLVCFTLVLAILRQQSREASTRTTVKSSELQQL

p38α = conditions: cited from earlier work
p38α (MAPK14) = p38α (MAPK14) (Homo sapiens, UniProt Q16539); conditions: live HEK293 cells, 60 min; BIRB796 5 nM, sorafenib 5 μM; DMSO 44.3 °C
human OCT3 = molecular target: T3, human OCT3 (Homo sapiens, UniProt O75751); assay: Sorafenib transport in HEK293 cells overexpressing human OCT3; type: in vitro ADME; conditions: HEK293 cells overexpressing human OCT3, Figure S1
T3 sequence (O75751 1-556): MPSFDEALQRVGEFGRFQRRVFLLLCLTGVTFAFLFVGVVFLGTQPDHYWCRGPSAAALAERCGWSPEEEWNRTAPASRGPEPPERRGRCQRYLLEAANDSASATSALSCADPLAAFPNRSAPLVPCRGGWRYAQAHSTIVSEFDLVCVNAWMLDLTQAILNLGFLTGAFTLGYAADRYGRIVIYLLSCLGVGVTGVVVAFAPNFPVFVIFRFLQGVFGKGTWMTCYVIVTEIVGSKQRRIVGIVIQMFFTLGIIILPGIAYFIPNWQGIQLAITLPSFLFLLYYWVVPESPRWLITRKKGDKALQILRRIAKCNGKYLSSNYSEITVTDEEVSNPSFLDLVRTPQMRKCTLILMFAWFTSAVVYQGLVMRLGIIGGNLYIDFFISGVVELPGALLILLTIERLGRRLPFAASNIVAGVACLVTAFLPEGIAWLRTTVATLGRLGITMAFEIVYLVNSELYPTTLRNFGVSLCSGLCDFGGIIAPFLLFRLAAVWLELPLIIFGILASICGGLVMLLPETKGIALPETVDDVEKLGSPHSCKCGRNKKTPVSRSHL

hOATP2B1 = molecular target: T4, hOATP2B1 (Homo sapiens, UniProt O94956); assay: Sorafenib uptake by HEK cells overexpressing hOATP2B1; type: in vitro ADME; conditions: Figure S4
T4 sequence (O94956 1-709): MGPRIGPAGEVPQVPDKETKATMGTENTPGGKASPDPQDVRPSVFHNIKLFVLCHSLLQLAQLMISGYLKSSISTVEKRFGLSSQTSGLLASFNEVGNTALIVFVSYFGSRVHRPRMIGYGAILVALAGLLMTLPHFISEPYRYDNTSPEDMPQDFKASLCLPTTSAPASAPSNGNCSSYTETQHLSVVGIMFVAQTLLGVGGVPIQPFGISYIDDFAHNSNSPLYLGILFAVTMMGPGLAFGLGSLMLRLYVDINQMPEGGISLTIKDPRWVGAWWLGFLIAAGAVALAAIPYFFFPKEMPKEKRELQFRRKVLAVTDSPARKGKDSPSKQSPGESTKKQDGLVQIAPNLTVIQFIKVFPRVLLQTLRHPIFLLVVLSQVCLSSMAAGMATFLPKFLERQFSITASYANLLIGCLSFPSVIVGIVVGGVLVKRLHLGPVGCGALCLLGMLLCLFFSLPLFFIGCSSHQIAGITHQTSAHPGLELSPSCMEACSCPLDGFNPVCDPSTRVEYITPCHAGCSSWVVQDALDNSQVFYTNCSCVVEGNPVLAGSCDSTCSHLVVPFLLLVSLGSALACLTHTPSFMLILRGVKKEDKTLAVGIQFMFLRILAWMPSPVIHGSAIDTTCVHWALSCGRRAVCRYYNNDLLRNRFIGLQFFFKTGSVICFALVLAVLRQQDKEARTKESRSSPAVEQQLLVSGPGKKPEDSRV

[4] = cited from earlier work
OCT1 [5] = conditions: cited from earlier work
human OCT2 = human OCT2 (Homo sapiens, UniProt O15244); conditions: HEK293 cells overexpressing human OCT2, Figure S1
OATP2B1 = molecular target: T5, OATP2B1 (Mus musculus, UniProt Q8BXB6); assay: Sorafenib pharmacokinetics in OATP2B1-deficient mice; type: in vivo; conditions: Figure S4
T5 sequence (Q8BXB6 1-683): T2 sequence (Q8BXB6 1-683)

Sequence of human OCT2 (O15244 whole entry): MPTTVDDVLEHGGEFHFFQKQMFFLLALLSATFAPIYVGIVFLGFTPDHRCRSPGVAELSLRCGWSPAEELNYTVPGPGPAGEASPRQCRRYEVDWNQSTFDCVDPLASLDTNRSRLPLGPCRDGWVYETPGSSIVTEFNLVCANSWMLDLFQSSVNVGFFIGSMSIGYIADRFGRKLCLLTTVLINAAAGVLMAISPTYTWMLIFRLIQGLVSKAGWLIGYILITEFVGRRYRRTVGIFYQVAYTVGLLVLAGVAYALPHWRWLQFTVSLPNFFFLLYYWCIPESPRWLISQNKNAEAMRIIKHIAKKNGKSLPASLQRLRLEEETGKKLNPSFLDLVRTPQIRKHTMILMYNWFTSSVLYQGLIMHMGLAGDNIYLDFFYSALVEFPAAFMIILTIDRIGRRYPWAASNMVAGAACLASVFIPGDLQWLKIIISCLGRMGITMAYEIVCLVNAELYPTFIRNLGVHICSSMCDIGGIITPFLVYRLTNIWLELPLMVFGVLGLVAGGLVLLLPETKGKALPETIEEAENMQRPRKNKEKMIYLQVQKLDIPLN
Sequence of p38α (MAPK14) (Q16539 whole entry): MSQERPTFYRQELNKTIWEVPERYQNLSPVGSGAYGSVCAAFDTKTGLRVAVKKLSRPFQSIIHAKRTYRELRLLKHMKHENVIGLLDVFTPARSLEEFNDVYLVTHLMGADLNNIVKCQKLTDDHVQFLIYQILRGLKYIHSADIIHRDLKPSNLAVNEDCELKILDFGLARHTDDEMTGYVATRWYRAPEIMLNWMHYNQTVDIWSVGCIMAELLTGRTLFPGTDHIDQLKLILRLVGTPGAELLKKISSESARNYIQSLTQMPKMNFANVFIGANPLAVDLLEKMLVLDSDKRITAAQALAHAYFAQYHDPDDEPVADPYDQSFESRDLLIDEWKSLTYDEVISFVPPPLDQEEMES

For `C[n+]1ccc(-c2ccccc2)cc1` [MPP], the “Increase of MPP uptake, OCT1 present vs absent” value (human OCT1 [1]; MPP 1 μM, 20 min) was 13 fold, the “Uptake of MPP into oocytes in the presence of OCT1” value (human OCT1 [1]; MPP 1 μM, 20 min, OCT1-expressing oocytes) was 2.1 pmol/oocyte/20 min and the “Uptake of MPP into oocytes in the absence of OCT1” value (human OCT1 [1]; MPP 1 μM, 20 min, nonexpressing oocytes) was 0.16 pmol/oocyte/20 min. For the same molecule, the “Effect of excess MPP on OCT1-mediated MPP uptake” value (human OCT1 [1]; […] MPP as inhibitor, 1 μM MPP as substrate) was “completely blocked”.

In the case of `CC[N+](CC)(CC)CC` [TEA], the “Increase of TEA uptake in HEK293-OCT1 vs HEK293-VC cells” value (human OCT1 [2]; TEA 100 μM, 10 min) is reported as 23.5±1.2 fold, the “TEA uptake compared to HEK293-OCT1 cells” value (Huh7 cells; Huh7, TEA 100 μM, 10 min) is reported as “did not take up appreciable levels” and the “TEA uptake compared to HEK293-OCT1 cells” value (HepG2 cells; HepG2, TEA 100 μM, 10 min) is reported as “did not take up appreciable levels”.

For `CCN1/C(=C/c2ccc3ccccc3[n+]2CC)C=Cc2ccccc21.[I-]` [decynium22], the “Effect of inhibitor on sorafenib uptake in HEK293-OCT1 and HEK293-VC cells” value (human OCT1 [2]; decynium22 5 μM, sorafenib 0.2 μM, 10 min) was “decreased sorafenib uptake”, the “Effect of inhibitor on TEA uptake in OCT1 transfectants” value (human OCT1 [2]; probe substrate TEA, OCT1-transfected HEK293 cells) was “almost completely abolished” and the “Interference with non-specific membrane binding of sorafenib” value (HeLa cells; HeLa cells) was “neither inhibitor interfered”.

With `CNC(=O)c1cc(Oc2ccc(NC(=O)Nc3ccc(Cl)c(C(F)(F)F)c3)cc2)cc[n+]1[O-]` [sorafenib-N-oxide] the “Transport of sorafenib-N-oxide by OCT1” value (human OCT1 [2]; 1 μM, HEK293 cells expressing VC or OCT1, time-dependent uptake) was “not transported by OCT1”, the Hepatic levels (Oct1 [3]; sorafenib 10 mg/kg oral, 7.5 h, data not shown) was “below the lower limit of quantification” and the “Pharmacokinetic parameters, Oct1-deficient vs wild-type mice” value (Oct1 [3]) was “minimal difference”.

For `CNC(=O)c1cc(Oc2ccc(NC(=O)Nc3ccc(Cl)c(C(F)(F)F)c3)cc2)ccn1` [sorafenib], the “Sorafenib uptake, HEK293-OCT1 vs HEK293-VC cells” value (human OCT1 [2]; sorafenib 0.2 μM, 10 min) was “no difference”, the “Sorafenib transport at 4 °C compared with 37 °C” value (human OCT1 [2]; sorafenib 7.5 μM, HEK293 cells, independently of OCT1) was “reduced” and the “Time at which sorafenib uptake reaches a plateau” value (human OCT1 [2]; sorafenib 7.5 μM, both HEK293-OCT1 and HEK293-VC cells) was “about 10 min”. For the same molecule, the “Sorafenib uptake, HEK-VC vs mOATP2B1-overexpressing HEK cells” value (mOATP2B1) was “did not detect a different sorafenib uptake”, the “Characteristics of intracellular accumulation of sorafenib” value (Huh7 cells; Huh7) was “saturable, increased over time, and was found to be temperature-dependent” and the “Liver concentrations, Oct1-deficient vs wild-type mice” value (Oct1 [3]; sorafenib 10 mg/kg oral, 7.5 h) was “no significant differences”. For the same molecule, the “Pharmacokinetic parameters, Oct1-deficient vs wild-type mice” value (Oct1 [3]) was “minimal difference”, the “Characteristics of intracellular accumulation of sorafenib” value (HepG2 cells; HepG2) was “saturable, increased over time, and was found to be temperature-dependent” and the IC50 (p38α) was 0.038 µM. The “Apparent aggregation temperature of p38α” value (p38α (MAPK14)) was 54.5 °C, the “Transport of sorafenib by OCT3” value (human OCT3) was “do not transport sorafenib” and the “Sorafenib uptake, OCT1-expressing vs nonexpressing oocytes” value (human OCT1 [1]; sorafenib 2 μM, 20 min, absence or presence of MPP […]) was “not different”. For the same molecule, the “Sorafenib uptake, HEK-VC vs hOATP2B1-overexpressing HEK cells” value (hOATP2B1) was “did not detect a different sorafenib uptake”, the “Fraction of dose found in urine” value [4] was “About 19%” and the “Inhibition of the transport of known OCT1 substrates” value (OCT1 [5]) was “poor inhibitor”. For the same molecule, the “Transport of sorafenib by OCT2” value (human OCT2) was “do not transport sorafenib”, the “Apparent cellular uptake of sorafenib” value (HeLa cells; HeLa cells, sorafenib 0.2 μM, 10-min incubation) was over 800 pmol/mg protein and the “Non-specific binding to cell membranes, share of total cell-associated drug” value (HeLa cells; confirms earlier observation of ref 25) was “up to 70%”. For the same molecule, the “Effect of OATP2B1 deficiency in mice on sorafenib pharmacokinetics” value (OATP2B1) was “did not detect”.

For cyclosporin A, the “Interference with non-specific membrane binding of sorafenib” value (HeLa cells; HeLa cells) was “neither inhibitor interfered”.
